Assay results: patent US20160030438A1, “ANTI-TUMORAL COMPOSITION COMPRISING A PI3KBETA INHIBITOR AND A RAF INHIBITOR, TO OVERCOME CANCER CELLS RESISTANCE” (SANOFI, priority 2013, published 2016)

Columns and labels:
[1] = test system: ribosomal protein S6 phosphorylated on Ser240/244 (pS6) in WM-266-4 cells; assay: In vitro S6 phosphorylation inhibition (pS6 western blot) in WM-266-4, example 7; format: cell-based, human; details: for inhibition at 0.1 µM: Homo sapiens
Procedure: (§1) The inhibitory effect on ribosomal S6 protein phosphorylation by both compounds alone or in combination was characterized using western blotting method which allows investigating S6 phosphorylation by detecting the expression of ribosomal protein S6 phosphorylated on Ser240/244 position (pS6).
(§2) The human melanoma WM-266-4 cell line was purchased at ATCC (Ref number CRL-1676 Batch 3272826). The WM-266-4 cells were cultured in RPMI1640 medium supplemented with 10% FBS and 2 mM L-Glutamine.
(§3) WM-266-4 cells were seeded into 6-well microplates at 1 000 000 cells per well, in complete culture medium and incubated at 37° C., 5% CO2, overnight.
(§4) At the end of cell treatment period, adherent cells as well as cells in the cell culture supernatant were lysed for the preparation of the proteins. Cells were lysed in a lysis buffer containing Hepes 50 mM, NaCl 150 mM, Glycerol 10%, Triton 1%, pH=7.5, adding extemporaneously a cocktail of protease and phosphatase inhibitors diluted 100 fold. Protein concentrations in each sample were determined using microBCA technique according to manufacturer's instructions. […] After western blotting revelation according to the operating procedure instructions, luminescence was read using FujiFilm (Ray Test) apparatus.
(§5) This instrument measures the total signal of luminescence obtained on Fujifilm machine (AU) for each selected band. Then, it subtracts the background value (BG) proportional to the size of the selected band or Area. The background is calculated from a band taken on the specific background of the western blot, to obtain the specific signal or (AU−BG) for each band. The calculation of the percentage of inhibition is performed for each treatment with compound or combination of compounds using the following formula:
Inhibition %=1−(((AU−BG)t/(AU−BG)st))*100

[2] = test system: human melanoma cell line A2058; assay: In vitro pro-apoptotic activity (PARP cleavage western blot) in A2058, example 4; format: cell-based
Procedure: The characterization of the interaction between compound (I) and compound (II) was studied using western blotting method which allows investigating apoptosis by detecting the cleavage of the PARP protein.
(§6) The human melanoma A2058 cell line was purchased at ATCC (Ref number CRL-11147 Batch 5074651). The A2058 cells were cultured in DMEM High glucose medium supplemented with 10% FBS and 2 mM L-Glutamine.
Cell treatment, Western Blot experiment and calculation of apoptosis fold induction were performed according to the material and method described in example 2.

[3] = test system: human melanoma cell line A2058; assay: In vitro anti-proliferative activity (CelltiterGlo, ray design) in A2058, example 3; format: cell-based; details: for Absolute IC40: A2058, 96 hours, example 3
Procedure: (I) in combination with the BRAF inhibitor compound (II), experiments were conducted using human melanoma cell line A2058 (BRAF mutant, PTEN-deficient and unsensitive to said BRAF inhibitor).
as §6
Compounds (I) and (II) dilutions were prepared according to the material and methods of example 1. The final concentrations tested were defined by Ray design method described below. The DMSO concentration was 0.1% in controls and in all treated wells.
A ray design was used allowing the characterization of the interaction of the two compounds for several fixed proportion in the mixture. The ray design includes one ray for each single agent and 19 combination rays.
A2058 cells were plated at 4,000 cells/well in 384-well plates in appropriate culture medium and incubated for 6 hours at 37° C., 5% CO2. […] Cell growth was evaluated by measuring intracellular ATP using CelltiterGlo® reagent (Promega) according to the manufacturer's protocol. Briefly, CellTiterGlo® was added to each plate, incubated for 1 hour then luminescent signal was read on the MicroBeta Luminescent plate reader.
Four experiments have been performed on this cell line. For each experiment, two 384-well plates were used allowing working with duplicates for combination rays and with quadruplicates for single agent rays.
Inhibition of cell growth was estimated after treatment with single compounds or combination of compounds for four days and comparing the signal to cells treated with vehicle (DMSO) and following equation described in example 1.
These measurements allow determining the potential synergistic combinations in using the statistical method described in example 1.

[4] = test system: ribosomal protein S6 phosphorylated on Ser240/244 (pS6) in A2058 cells; assay: In vitro S6 phosphorylation inhibition (pS6 western blot) in A2058, example 8; format: cell-based, human; details: for inhibition at 0.1 µM: Homo sapiens
Procedure: as §1, §6
Cell treatment, Western Blot experiment and calculation of percentage of pS6 inhibition were performed according to the material and method described in example 7.

[5] = test system: human melanoma cell line WM-266-4; assay: In vitro pro-apoptotic activity (PARP cleavage western blot) in WM-266-4, example 2; format: cell-based; details: for PARP cleavage signal (AU-BG): single agent 10 000 nM, 24 hours, WM-266-4, example 2
Procedure: The characterization of the interaction between compound (I) and compound (II) was studied using western blotting method measuring the expression of cleaved PARP which allows to investigate apoptosis by detecting the cleavage of the PARP protein.
as §2
They were diluted following a 10 fold step dilution in DMSO in order to obtain a 1 mM solution. Then each solution at 10 mM and 1 mM was diluted 50-fold in culture medium containing 10% serum before being added onto cells with a 20-fold dilution factor to reach final concentrations of 10,000 nM and 1,000 nM. The final DMSO concentration was 0.1% in controls and in all treated wells.
as §3
as §4, with “instructions. Western blotting was performed loading 20 μg of proteins in each gel well, and according to the operating procedure.” for “instructions.”
as §5, with “fold induction” for “percentage of inhibition”
Fold Induction=((AU−BG)t/(AU−BG)st)*100

[6] = single agent 10 000 nM, 24 hours
[7] = single agent 10 000 nM, A2058, example 4

IC50 ([3]; Homo sapiens, A2058, approximately, read-out: IC50 with A2058 unsensitive cancer cells) [µM] | Compound | inhibition at 0.1 µM ([1]; single agent 100 nM) [%] | pS6 signal (AU-BG) ([1]; single agent 100 nM) | Inhibition % of S6 phosphorylation ([1]; single agent 1 000 nM) [%] | pS6 signal (AU-BG) ([1]; single agent 1 000 nM) | Inhibition % of S6 phosphorylation [1, 6] [%] | pS6 signal (AU-BG) [1, 6] [AU-BG] | PARP cleavage signal (AU-BG) [2, 7] [AU-BG] | Absolute IC40 ([3]; single agent) | inhibition at 0.1 µM ([4]; single agent 100 nM) [%] | pS6 signal (AU-BG) ([4]; single agent 100 nM) | Inhibition % of S6 phosphorylation ([4]; single agent 1 000 nM) [%] | pS6 signal (AU-BG) ([4]; single agent 1 000 nM) | Inhibition % of S6 phosphorylation ([4]; single agent 10 000 nM) [%] | pS6 signal (AU-BG) ([4]; single agent 10 000 nM) | PARP cleavage signal (AU-BG) [5] [AU-BG] | Fold induction of PARP cleavage ([2]; human, 24 h, 10000 nM) [fold] | Fold induction of PARP cleavage [2, 7] [fold] | IC40, antiproliferative effect, A2058 ([3]; single agent, approximately) | Fold induction of PARP cleavage ([5]; human, WM-266-4 melanoma cells (BRAF mutant, PTEN-deficient), 24 h, 10000 nM) [fold]
– | C[C@H]1Cc2ccccc2N1C(=O)Cc1nc(N2CCOCC2)cc(=O)[nH]1 [Compound (I), 2-{2-[(2S)-2-methyl-2,3-dihydro-1H-indol-1-yl]-2-oxoethyl}-6-(morpholin-4-yl)pyrimidin-4(3H)-one] | 69 | 12132104 | 90 | 3984365 | 94 | 2239754 | 2141626 | 11,500 nM | 8 | 27394341 | 42 | 17416427 | 73 | 8161752 | 509366 | – | – | – | –
~4.2 | CCCS(=O)(=O)Nc1ccc(F)c(C(=O)c2c[nH]c3ncc(-c4ccc(Cl)cc4)cc23)c1F [Compound (II), 1-Propanesulfonamide,N-[3-[[5-(4-chlorophenyl)-1H-pyrrolo[2,3-b]pyridin-3-yl]carbonyl]-2,4-difluorophenyl]] | 76 | 9230994 | 92 | 3163194 | 94 | 2333062 | 2501364 | 1,890 nM | 27 | 21830955 | 40 | 17943024 | 62 | 11383792 | 982219 | 1.00 | 1.17 | ~1,200 nM | 1.38
